Where two headings read alike, the source gives them in different places. One block for each molecule: values may come before it.
What was measured:
[1] = tested on: HCT-116 colorectal cancer cells; assay: MTT cytotoxicity assay, HCT-116; type: cell-based; conditions: mean ± SD of three experiments, NA = no or negligible activity in initial crystal violet screening, read-out: IC50 Colon HCT-116
Description: (§1) The cytotoxic activity of the new synthesized compounds was tested in different mammalian cancer cells, breast cancer (+ve ER) (MCF-7), breast cancer (−ve ER) (MDA-MB-231), tongue (oral cancer) (SAS), prostate cancer (PC-3), colorectal cancer (HCT-116) and hepatocellular carcinoma (HuH-7 and HepG-2). The cell lines were obtained from the American Type Culture Collection (ATCC). The cells were cultivated at 37 °C and 5% CO2 in DMEM (Lonza) medium supplemented with 10% fetal bovine serum (Lonza), 100 IU/mLpenicillin and 100 µg/mL streptomycin (Lonza). Cisplatin was used as a positive control and was obtained from Sigma-Aldrich. The synthesized compounds were solubilized in DMSO and stored at −20 °C. For the initial screening, 0.5% crystal violet was used. The viability of the cells were determined by using the MTT reagent.
(§2) “The cells were seeded in a 96-well plate and serial dilutions of the tested compounds or cisplatin was added after overnight incubation of the cells at 37 °C and 5% CO2. DMSO was used as a negative control (0.1%). After that, MTT (5 mg/mL PBS) was added after 48 hours of incubation. […] The absorbance was recorded at 570 nm by Biotech ELx-800™ plate reader (Winooski, VT, USA). The viability assay was performed 3 times and the standard deviation was determined (±). […] The selectivity index was calculated as previously reported” [26, 27].

[2] = tested on: MCF-7 breast cancer (+ve ER) cells; assay: MTT cytotoxicity assay, MCF-7; type: cell-based; conditions: mean ± SD of three experiments, NA = no or negligible activity in initial crystal violet screening
Description: as §1
(§3) “The cells were seeded in a 96-well plate and serial dilutions of the tested compounds or cisplatin was added after overnight incubation of the cells at 37 °C and 5% CO2. DMSO was used as a negative control (0.1%). After that, MTT (5 mg/mL PBS) was added after 48 hours of incubation. The formazan crystals were solubilized by the acidified SDS solution. The absorbance was recorded at 570 nm by Biotech ELx-800™ plate reader (Winooski, VT, USA). The viability assay was performed 3 times and the standard deviation was determined (±). IC50 was calculated as the concentration that causes 50% inhibition of cell growth. The selectivity index was calculated as previously reported” [26, 27].

[3] = tested on: SAS tongue carcinoma (oral cancer) cells; assay: MTT cytotoxicity assay, SAS; type: cell-based; conditions: 48 h, mean ± SD of three experiments, NA = no or negligible activity in initial crystal violet screening
Description: as §1, §3

HuH-7 liver cancer cells = assay: MTT cytotoxicity assay, HuH-7; type: cell-based; conditions: mean ± SD of three experiments, NA = no or negligible activity in initial crystal violet screening
Description: as §1, §2

[4] = tested on: PC-3 prostate cancer cells; assay: MTT cytotoxicity assay, PC-3; type: cell-based; conditions: 48 h, mean ± SD of three experiments, NA = no or negligible activity in initial crystal violet screening
Description: as §1, §3

HepG2 liver cancer cells = assay: MTT cytotoxicity assay, HepG2; type: cell-based; conditions: mean ± SD of three experiments, NA = no or negligible activity in initial crystal violet screening
Description: as §1, §3

[5] = tested on: MDA-MB-231 breast cancer (−ve ER) cells; assay: MTT cytotoxicity assay, MDA-MB-231; type: cell-based; conditions: mean ± SD of three experiments, NA = no or negligible activity in initial crystal violet screening
Description: as §1, §3

[6] = tested on: seven cancer cell lines (MCF-7, MDA-MB-231, SAS, PC-3, HCT-116, HuH-7, HepG2); assay: Anticancer screening against the panel of seven cancer cell lines (crystal violet initial screening); type: cell-based; conditions: concentration of 50 μM
Description: To evaluate the anticancer activity of the 13 newly synthesized compounds, we screened their activities at a concentration of 50 μM against seven cancer cell lines, including breast cancer (positive [MCF-7] and negative [MDA-MB-231] for estrogen receptor expression), tongue carcinoma (SAS), prostate cancer (PC-3), colorectal cancer (HCT-116) and liver cancer (HuH-7 and HepG2) cell lines. […] The 3-(4,5-dimethylthiazol-2-yl)-2,5-diphenyltetrazolium bromide (MTT) assay was performed to determine the concentration of the active compounds needed to kill 50% of cells.
as §1

SMILES: N.N.[Cl][Pt][Cl] [Cisplatin, reference compound]
IC50 ([1]; 48 h): 8 ± 0.76 µM
IC50 ([2]; 48 h): 9 ± 2.43 µM
IC50 [3]: 4.5 ± 0.34 µM
IC50 (HuH-7 liver cancer cells; 48 h): 14.7 ± 0.5 µM
IC50 [4]: 12 ± 1.25 µM
IC50 (HepG2 liver cancer cells; 48 h): 10 ± 0.65 µM
IC50 ([5]; 48 h): 15 ± 0.71 µM

melting point: 248 to 249 °C
SMILES: O=C1CC(c2ccccc2)C(C(=O)Nc2ccccn2)(C(=O)Nc2ccccn2)C(c2ccccc2)C1 (stereo not drawn) [Compound 3a, 4-Oxo-2,6-diphenyl-N,N′-di(pyridin-2-yl)cyclohexane-1,1-dicarboxamide]

melting point: 145 to 146 °C
SMILES: Cc1ccc(C2CC(=O)CC(c3ccc(C)cc3)C2(C(=O)Nc2ccc(Cl)cn2)C(=O)Nc2ccc(Cl)cn2)cc1 (stereo not drawn) [Compound 3b, N,N′-bis(5-Chloropyridin-2-yl)-4-oxo-2,6-di-p-tolylcyclohexane-1,1-dicarboxamide]

melting point: 231 to 232 °C
SMILES: O=C1CC(c2ccc(Cl)cc2)C(C(=O)Nc2ccccn2)(C(=O)Nc2ccccn2)C(c2ccc(Cl)cc2)C1 (stereo not drawn) [Compound 3c, 2,6-bis(4-Chlorophenyl)-4-oxo-N,N′-di(pyridin-2-yl)cyclohexane-1,1-dicarboxamide]
anticancer activity in initial screening [6]: showed different levels of anticancer activities
IC50 ([2]; Homo sapiens, MCF7, 48 h): 10 ± 0.62 µM
IC50 [3]: 15 ± 1.3 µM
IC50 [4]: 25 ± 1.42 µM
IC50 (HepG2 liver cancer cells; Homo sapiens, HepG2, 48 h): 8 ± 0.89 µM
IC50 ([5]; Homo sapiens, MDA-MB-231, 48 h): 7 ± 1.12 µM

melting point: 210 to 211 °C
SMILES: O=C1CC(c2ccc(Cl)cc2Cl)C(C(=O)Nc2ccccn2)(C(=O)Nc2ccccn2)C(c2ccc(Cl)cc2Cl)C1 (stereo not drawn) [Compound 3d, 2,6-bis(2,4-Dichlorophenyl)-4-oxo-N,N′-di(pyridin-2-yl)cyclohexane-1,1-dicarboxamide]
anticancer activity in initial screening [6]: showed different levels of anticancer activities
IC50 ([2]; Homo sapiens, MCF7, 48 h): > 50 µM
IC50 (HepG2 liver cancer cells; Homo sapiens, HepG2, 48 h): > 50 µM
IC50 ([5]; Homo sapiens, MDA-MB-231, 48 h): 18 ± 0.87 µM

SMILES: O=C1CC(c2ccc(Br)cc2)C(C(=O)Nc2ccccn2)(C(=O)Nc2ccccn2)C(c2ccc(Br)cc2)C1 (stereo not drawn) [Compound 3e, 2,6-bis(4-Bromorophenyl)-4-oxo-N,N′-di(pyridin-2-yl)cyclohexane-1,1-dicarboxamide]
anticancer activity in initial screening [6]: showed different levels of anticancer activities
IC50 ([2]; 48 h): 12 ± 0.54 µM
IC50 (HepG2 liver cancer cells; 48 h): 8 ± 0.96 µM
IC50 ([5]; 48 h): 5 ± 0.5 µM

melting point: 174 to 175 °C
SMILES: O=C1CC(c2cccc([N+](=O)[O-])c2)C(C(=O)Nc2ccc(Cl)cn2)(C(=O)Nc2ccc(Cl)cn2)C(c2cccc([N+](=O)[O-])c2)C1 (stereo not drawn) [Compound 3f, N,N′-bis(5-Chloropyridin-2-yl)-2,6-bis(3-nitrophenyl)-4-oxocyclohexane-1,1-dicarboxamide]

melting point: 203 to 204 °C
SMILES: COc1ccc(C2CC(=O)CC(c3ccc(OC)cc3)C2(C(=O)Nc2ccc(Cl)cn2)C(=O)Nc2ccc(Cl)cn2)cc1 (stereo not drawn) [Compound 3g, N,N′-bis(5-Chloropyridin-2-yl)-2,6-bis(4-methoxyphenyl)-4-oxocyclohexane-1,1-dicarboxamide]

melting point: 114 to 115 °C
SMILES: O=C1CC(c2ccc3ccccc3c2)C(C(=O)Nc2ccc(Cl)cn2)(C(=O)Nc2ccc(Cl)cn2)C(c2ccc3ccccc3c2)C1 (stereo not drawn) [Compound 3h, N,N′-bis(5-Chloropyridin-2-yl)-2,6-di(naphthalen-2-yl)-4-oxocyclohexane-1,1-dicarboxamide]

melting point: 165 to 166 °C
SMILES: O=C1CC(c2cccs2)C(C(=O)Nc2ccc(Cl)cn2)(C(=O)Nc2ccc(Cl)cn2)C(c2cccs2)C1 (stereo not drawn) [Compound 3i, N,N′-bis(5-Chloropyridin-2-yl)-4-oxo-2,6-di(thiophen-2-yl)cyclohexane-1,1-dicarboxamide]

melting point: 160 to 161 °C
SMILES: O=C1CC(c2ccco2)C(C(=O)Nc2ccc(Cl)cn2)(C(=O)Nc2ccc(Cl)cn2)C(c2ccco2)C1 (stereo not drawn) [Compound 3j, N,N′-bis(5-Chloropyridin-2-yl)-2,6-di(furan-2-yl)-4-oxocyclohexane-1,1-dicarboxamide]
IC50 ([2]; Homo sapiens, MCF7, 48 h): 50 ± 0.78 µM
IC50 (HepG2 liver cancer cells; Homo sapiens, HepG2, 48 h): > 50 µM
IC50 ([5]; Homo sapiens, MDA-MB-231, 48 h): 45 ± 3 µM

melting point: 213 to 214 °C
SMILES: O=C1CC(c2cccc(Br)c2)C(C(=O)Nc2ccc(Cl)cn2)(C(=O)Nc2ccc(Cl)cn2)C(c2cccc(Br)c2)C1 (stereo not drawn) [Compound 3k, 2,6-bis(3-Bromophenyl)-N,N′-bis(5-chloropyridin-2-yl)-4-oxocyclohexane-1,1-dicarboxamide]
anticancer activity in initial screening [6]: showed different levels of anticancer activities

melting point: 138 to 139 °C
SMILES: O=C1CC(c2ccc(C(F)(F)F)cc2)C(C(=O)Nc2ccc(Cl)cn2)(C(=O)Nc2ccc(Cl)cn2)C(c2ccc(C(F)(F)F)cc2)C1 (stereo not drawn) [Compound 3l, N,N′-bis(5-Chloropyridin-2-yl)-4-oxo-2,6-bis(4-(trifluoromethyl)phenyl)cyclohex-ane-1,1-dicarboxamide]
anticancer activity in initial screening [6]: showed different levels of anticancer activities
IC50 ([1]; Homo sapiens, HCT-116, 48 h): 6 ± 0.78 µM
IC50 ([2]; Homo sapiens, MCF7, 48 h): 18 ± 1.71 µM
IC50 [3]: 9 ± 0.38 µM
IC50 (HuH-7 liver cancer cells; Homo sapiens, Huh-7, 48 h): 4.5 ± 0.3 µM
IC50 [4]: > 50 µM
IC50 (HepG2 liver cancer cells; Homo sapiens, HepG2, 48 h): 25 ± 0.38 µM
IC50 ([5]; Homo sapiens, MDA-MB-231, 48 h): 5 ± 0.25 µM

melting point: 245 to 246 °C
SMILES: O=C1CC(c2ccc(F)cc2)C(C(=O)Nc2ccccn2)(C(=O)Nc2ccccn2)C(c2ccc(F)cc2)C1 (stereo not drawn) [Compound 3m, 2,6-bis(4-Fluorophenyl)-4-oxo-N,N′-di(pyridin-2-yl)cyclohexane-1,1-dicarboxamide]
